Results as given in ChEMBL document CHEMBL4417636, “Small molecule inhibitors of pendrin ion exchange and pharmaceutical compositions” (2017).
Active and inactive are the calls of the source. No cut-off for these calls is given here.

Assays:
[1] = biological target: T1, Pendrin (Homo sapiens) (UniProt O43511); assay: Inhibition of human pendrin expressed in FRT cells co-expressing EYFP-HIF assessed as reduction in pendrin-mediated anion exchange at 25 uM incubated for 10 mins by pH-sensitive fluorescent probe BCECF-AM based fluorescence assay relative to control; type: cell-based
T1 sequence (whole entry): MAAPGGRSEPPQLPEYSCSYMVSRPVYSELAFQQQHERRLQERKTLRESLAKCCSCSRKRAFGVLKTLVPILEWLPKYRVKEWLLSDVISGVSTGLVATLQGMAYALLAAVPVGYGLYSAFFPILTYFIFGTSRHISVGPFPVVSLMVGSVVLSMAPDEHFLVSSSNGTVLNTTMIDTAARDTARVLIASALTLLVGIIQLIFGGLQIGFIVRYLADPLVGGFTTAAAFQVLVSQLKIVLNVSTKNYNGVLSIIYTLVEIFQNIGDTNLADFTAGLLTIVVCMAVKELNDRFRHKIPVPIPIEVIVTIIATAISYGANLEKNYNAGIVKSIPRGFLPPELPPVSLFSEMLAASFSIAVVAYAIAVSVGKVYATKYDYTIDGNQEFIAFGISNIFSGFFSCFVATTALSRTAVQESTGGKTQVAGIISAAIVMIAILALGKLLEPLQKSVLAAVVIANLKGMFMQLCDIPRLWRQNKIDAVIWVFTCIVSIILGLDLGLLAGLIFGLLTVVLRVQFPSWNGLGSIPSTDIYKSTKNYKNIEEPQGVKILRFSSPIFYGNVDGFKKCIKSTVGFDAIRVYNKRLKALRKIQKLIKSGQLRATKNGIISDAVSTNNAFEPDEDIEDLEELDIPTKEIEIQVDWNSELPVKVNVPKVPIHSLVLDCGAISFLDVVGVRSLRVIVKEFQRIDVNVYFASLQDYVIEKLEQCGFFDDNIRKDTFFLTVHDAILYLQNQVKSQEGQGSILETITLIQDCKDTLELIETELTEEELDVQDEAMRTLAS

[2] = biological target: T1, Pendrin (Homo sapiens); assay: Inhibition of human pendrin expressed in FRT cells co-expressing EYFP-HIF assessed as reduction in pendrin-mediated anion exchange at 100 uM incubated for 10 mins by pH-sensitive fluorescent probe BCECF-AM based fluorescence assay relative to control; type: cell-based

| inhibition [1] | inhibition [2] [%] | SMILES |
| --- | --- | --- |
| inactive | – | NS(=O)(=O)c1cc(C(=O)O)c(NCc2ccco2)cc1Cl |
| – | < 40 | O=C(O)c1cccnc1Nc1cccc(C(F)(F)F)c1 |
| 60% | – | Cn1nc(COc2ccc(F)cc2)c2c1CCN(C(=O)Nc1cccc(Cl)c1)C2 |
